Measured values published in PubChem BioAssay AID2060625 (Molecular Pharmacology Branch, DTP, NCI, 2025).

Test system: 186277-243-T-J2-PDC spheroids with HUVEC/MSC, viability
Assay: Anticancer human tumor 186277-243-T-J2-PDC patient-derived colon adenocarcinoma cell line growth inhibition [CLK]
Settings: for IC50: curve of first compound; for viability, T/C: stronger effect = lower value; active = viability on the fitted dose curve at most 10% of control; inactive = the rest
Method in brief: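 Patient-derived tumor cells grown as complex spheroids with HUVEC endothelial cells and mesenchymal stem cells, treated with drug combinations. Concentrations descend in half-log steps from near clinical Cmax, or from 10 microM if Cmax unknown.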
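Also: compound exposure lasted seven days before readout.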
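For viability, T/C in this document: 100% = DMSO vehicle control wells.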

CC(C)CC(NC(=O)C(Cc1ccccc1)NC(=O)c1cnccn1)B(O)O (centres undefined) + CNC(=O)c1ccc(Nc2nc(OC3CCCC3)c3c(-c4ccc5nc(C)oc5c4)c[nH]c3n2)c(OC)c1
1.03 nM: IC50 (second compound 0.316 µM)
inactive: viability, T/C (second compound 0.0316 µM, first compound 0.000949 µM) 112% | viability, T/C (second compound 0.0316 µM, first compound 0.003 µM) 60.9% | viability, T/C (second compound 0.1 µM, first compound 0.000949 µM) 77.7% | viability, T/C (second compound 0.1 µM, first compound 0.003 µM) 27.6% | viability, T/C (second compound 0.316 µM, first compound 0.000949 µM) 52.8% | viability, T/C (second compound 0.316 µM, first compound 0.003 µM) 13.1% | viability, T/C (second compound 1 µM, first compound 0.000949 µM) 36.5% | viability, T/C (second compound 3.16 µM, first compound 0.000949 µM) 33.3% | viability, T/C (second compound 10 µM, first compound 0.000949 µM) 40.4%
1.79 nM: IC50 (second compound 0.1 µM)
active: viability, T/C (second compound 0.0316 µM, first compound 0.00949 µM) 4.41% | viability, T/C (second compound 0.0316 µM, first compound 0.03 µM) 2.07% | viability, T/C (second compound 0.0316 µM, first compound 0.0949 µM) 3.06% | viability, T/C (second compound 0.0316 µM, first compound 0.3 µM) 2.24% | viability, T/C (second compound 0.1 µM, first compound 0.00949 µM) 3.68% | viability, T/C (second compound 0.1 µM, first compound 0.03 µM) 1.91% | viability, T/C (second compound 0.1 µM, first compound 0.0949 µM) 2.97% | viability, T/C (second compound 0.1 µM, first compound 0.3 µM) 2.4% | viability, T/C (second compound 0.316 µM, first compound 0.00949 µM) 2.31% | viability, T/C (second compound 0.316 µM, first compound 0.03 µM) 2.27% | viability, T/C (second compound 0.316 µM, first compound 0.0949 µM) 1.45% | viability, T/C (second compound 0.316 µM, first compound 0.3 µM) 0.89% | viability, T/C (second compound 1 µM, first compound 0.003 µM) 3.94% | viability, T/C (second compound 1 µM, first compound 0.00949 µM) 2.3% | viability, T/C (second compound 1 µM, first compound 0.03 µM) 2.6% | viability, T/C (second compound 1 µM, first compound 0.0949 µM) 4.22% | viability, T/C (second compound 1 µM, first compound 0.3 µM) 2.48% | viability, T/C (second compound 3.16 µM, first compound 0.003 µM) 2.4% | viability, T/C (second compound 3.16 µM, first compound 0.00949 µM) 0.9% | viability, T/C (second compound 3.16 µM, first compound 0.03 µM) 2.14% | viability, T/C (second compound 3.16 µM, first compound 0.0949 µM) 2.81% | viability, T/C (second compound 3.16 µM, first compound 0.3 µM) 0.81% | viability, T/C (second compound 10 µM, first compound 0.003 µM) 2.71% | viability, T/C (second compound 10 µM, first compound 0.00949 µM) 1.47% | viability, T/C (second compound 10 µM, first compound 0.03 µM) 4.33% | viability, T/C (second compound 10 µM, first compound 0.0949 µM) 2.67% | viability, T/C (second compound 10 µM, first compound 0.3 µM) 1.5%
< 0.949 nM: IC50 (second compound 1 µM) | IC50 (second compound 3.16 µM) | IC50 (second compound 10 µM)
3.74 nM: IC50 (second compound 0.0316 µM)

CCc1c2c(nc3ccc(O)cc13)-c1cc3c(c(=O)n1C2)COC(=O)[C@]3(O)CC + CNC(=O)c1ccc(Nc2nc(OC3CCCC3)c3c(-c4ccc5nc(C)oc5c4)c[nH]c3n2)c(OC)c1
22.3 nM: IC50 (second compound 0.1 µM)
< 3.16 nM: IC50 (second compound 1 µM) | IC50 (second compound 3.16 µM) | IC50 (second compound 10 µM)
active: viability, T/C (second compound 1 µM, first compound 0.1 µM) 8.64% | viability, T/C (second compound 1 µM, first compound 0.316 µM) 5.93% | viability, T/C (second compound 1 µM, first compound 1 µM) 4% | viability, T/C (second compound 3.16 µM, first compound 0.1 µM) 10.9% | viability, T/C (second compound 3.16 µM, first compound 0.316 µM) 6.99% | viability, T/C (second compound 3.16 µM, first compound 1 µM) 3.82% | viability, T/C (second compound 10 µM, first compound 0.1 µM) 6.46% | viability, T/C (second compound 10 µM, first compound 0.316 µM) 7.11% | viability, T/C (second compound 10 µM, first compound 1 µM) 4.09%
inactive: viability, T/C (second compound 0.0316 µM, first compound 0.00316 µM) 101% | viability, T/C (second compound 0.0316 µM, first compound 0.01 µM) 73.3% | viability, T/C (second compound 0.0316 µM, first compound 0.0316 µM) 43.3% | viability, T/C (second compound 0.0316 µM, first compound 0.1 µM) 23.4% | viability, T/C (second compound 0.0316 µM, first compound 0.316 µM) 16.7% | viability, T/C (second compound 0.0316 µM, first compound 1 µM) 11.2% | viability, T/C (second compound 0.1 µM, first compound 0.00316 µM) 77.8% | viability, T/C (second compound 0.1 µM, first compound 0.01 µM) 71% | viability, T/C (second compound 0.1 µM, first compound 0.0316 µM) 40.5% | viability, T/C (second compound 0.1 µM, first compound 0.1 µM) 19.2% | viability, T/C (second compound 0.1 µM, first compound 0.316 µM) 16.6% | viability, T/C (second compound 0.1 µM, first compound 1 µM) 10.3% | viability, T/C (second compound 0.316 µM, first compound 0.00316 µM) 64.4% | viability, T/C (second compound 0.316 µM, first compound 0.01 µM) 54% | viability, T/C (second compound 0.316 µM, first compound 0.0316 µM) 21% | viability, T/C (second compound 0.316 µM, first compound 0.1 µM) 12.9% | viability, T/C (second compound 0.316 µM, first compound 0.316 µM) 12.4% | viability, T/C (second compound 0.316 µM, first compound 1 µM) 7.31% | viability, T/C (second compound 1 µM, first compound 0.00316 µM) 47.3% | viability, T/C (second compound 1 µM, first compound 0.01 µM) 31.8% | viability, T/C (second compound 1 µM, first compound 0.0316 µM) 12.8% | viability, T/C (second compound 3.16 µM, first compound 0.00316 µM) 43.4% | viability, T/C (second compound 3.16 µM, first compound 0.01 µM) 23.8% | viability, T/C (second compound 3.16 µM, first compound 0.0316 µM) 8.87% | viability, T/C (second compound 10 µM, first compound 0.00316 µM) 40.6% | viability, T/C (second compound 10 µM, first compound 0.01 µM) 24% | viability, T/C (second compound 10 µM, first compound 0.0316 µM) 10.3%
24.4 nM: IC50 (second compound 0.0316 µM)
11.5 nM: IC50 (second compound 0.316 µM)
